# Experimental data taken from patent publication US20030211589A1, “Short peptides from the b4 and b5 regions kinases which selectively modulate protein activity” (priority 2002, published 2003).
# The star is where a group is joined. Stearoyl = CCCCCCCCCCCCCCCCCC(=O)*
# What was measured:
# [1] = system: HNK-1-positive neural crest cells from neural primordia explants; assay: Emigration of neural crest cells from neural primordia explants (HNK-1 immunostaining); assay type: cell-based, quail; conditions: 5 μM peptide, 24 hours, serum-free medium, compared to control; FIG. 5
# Text: The procedure for explants of neural primordia is described in greater detail in Sela-Donenfeld and Kalcheim (Development, 1999, in press), the teaching of which are incorporated herein by reference.
# The trunk region of 16 somite-old quail embryos was separately sectioned at the level of the segmental plate plus the last 2 epithelial somite pairs. Neural primordia consisting of the neural tube and premigratory neural crest cells were isolated from adjacent tissues with 25% pancreatin in PBS, transferred to PBS supplemented with 5% newborn calf serum to stop enzymatic activity and washed in serum-free culture medium prior to explantation. The neural primordia were then explanted onto multi-well chamber slides that were pre-coated with fibronectin (50 μg/ml) for 1 hour. The neural primordia were cultured in 50 μl serum-free SFRI medium (Berganton, France) in the absence or presence of B4-5 peptide—K099B901, in a final concentration of 5 μM and incubated in a humid chamber for 24 hours. At the end of the incubation, the primordia were gently washed with PBS and fixed with Bouin's fluid, washed 3 times with PBS and immunostained with 50 μl of monoclonal antibodies against HNK-1 for 1 h at room temperature. Excess HNK-1 antibodies were washed 3 times with PBS. The samples were further incubated with 50 μl of a secondary fluorescent antibody, GAM-FITC for 1 h at room temperature. […]
# [2] = system: fracture site on a rabbit ulna; assay: Rabbit ulnar osteotomy model of bone remodeling (histology); assay type: in vivo, New Zealand White rabbits; conditions: peptide mixture 0.3 cm^3 applied locally to fractured area, 4 weeks, vs untreated osteotomy; FIG. 6
# Experimental: The rabbit ulnar osteotomy models described by Bouxsein et al., at the 45th Annual Meeting, Orthopedic Research Society, Anaheim, Calif. (1999), were employed to assess the ability of the B4-5 peptide K099B901 (ALK4-derived peptide) to accelerate bone remodeling.
# Bilateral mid-ulnar osteotomies were made in the front limbs of male New Zealand White rabbits using an oscillating saw. The preparation of the peptide was as follows: 40 mg of peptide were dissolved in 200 μl of DMSO (Sigma) and 800 μl of double distilled water. The solution was mixed with 100 mg of methyl cellulose (Sigma) and 100 mg of carboxymethyl cellulose (Serva).
# The K099B901 peptide mixture (0.3 cm^3) was locally applied to the fractured area. An untreated osteotomy served as a control. Radiographs of the ulna were taking weekly for 4 weeks. The rabbits were then sacrificed and the fractured areas were taken for bone histology. The bone tissue was fixated in 4% formaldehide and then soaked in 10% formic acid for decalcification. The decalcified tissue was imbedded in paraffin wax, serially sectioned at 5μ and stained with indigo-carmine.
# [3] = system: Human Fetal lung fibroblasts (HFL-1); assay: HFL-1 fibroblast cell proliferation (methylene blue staining); assay type: cell-based; conditions: peptide 0-10 μM, 48 hours, vs control without peptide; FIG. 4
# Experimental: Human Fetal lung fibroblasts (HFL-1) were obtained from the American Type Culture Collection (Manassas, Va.).
# Culture medium was prepared from F-12K (Gibco), penicillin/streptomycin/glutamine (penicillin—100U/ml; streptomycin—100U/ml; glutamine—2 mM), 0.5% fetal calf serum and […] ascorbic acid. A suspension of HFL-1 cells at 2.22×10^5 cell/ml was prepared in the above described culture medium.
# A series of B4-5 peptide stock solution was prepared by diluting a […] solution of the B4-5 peptide in 100% DMSO, with phosphate buffered saline (PBS) containing 0.1% BSA. The concentration of B4-5 peptide in each stock solution was adjusted to […] the desired concentration of the B4-5 peptide in the assay mixture. Twenty μl of peptide stock solution were placed at the bottom of each well in a 96-well flat bottom tissue culture plate, six replications for each concentration. BSA solution containing 1% DMSO with no added peptide served as a control. 180 μl of the HFL-1 cell suspension were added to each well (40,000 cells per well). The cells were incubated with the peptide (final concentrations of 0-10μM), for 48 hours at 37° C. in a 5% CO2 humidified incubator. At the end of the incubation the cells were fixed with buffered formaline (200 μl/well) for 1 h at room temperature. […] The O.D. was read at 595 nm to determine the number of cells per well. […]
substance,measurement,setting,value
"K099B901: B4-5 peptide K099B901 (ALK4-derived peptide), SEQ ID NO. 30, FIG. 3 (Stearoyl-GDNKDNGTWT-NH2; SMILES CCCCCCCCCCCCCCCCCC(=O)NCC(=O)N[C@@H](CC(=O)O)C(=O)N[C@@H](CC(N)=O)C(=O)N[C@@H](CCCCN)C(=O)N[C@@H](CC(=O)O)C(=O)N[C@@H](CC(N)=O)C(=O)NCC(=O)N[C@H](C(=O)N[C@@H](Cc1c[nH]c2ccccc12)C(=O)N[C@H](C(N)=O)[C@@H](C)O)[C@@H](C)O)",outgrowth of HNK-1-positive neural crest cells from the explant,[1],remarkable outgrowth of HNK-1—positive neural crest cells from the explant
same,tissue formed at the fracture site (bone histology),[2],a bone like bone-tissue was formed leading to a genuine regeneration
same,stimulation of cell proliferation of the HFL-1 cells,[3],exceeding 2 ×
